SMILES strings stand for the structures. Structures can show the parent of a compound that is named as a salt. Where only a bound is given, the exact number is not on record here.

For the first series, the system named is LI90 cells, a human hepatic stellate cell line. The series can be described thus: Inhibitory effect on collagen synthesis (in vitro). It counts as cell-based. The note with it: in the presence of recombinant human TGF-β1, 3H-proline labelled collagen in supernatant. As for the experimental part: Inhibitory Effect on Collagen Synthesis (In Vitro)
LI90 cells, a human hepatic stellate cell line, were suspended in DMEM (Dulbecco's modified eagle medium) supplemented with 10% inactivated FBS (fetal bovine serum), seeded on a 12-well plate and cultured in a CO2 incubator (preset temperature: 37° C., preset CO2 concentration: 5%). After being cultured for 24 hours, the cells were washed with D-PBS (Dulbecco's phosphate buffered saline), placed in MEM (Eagle's minimum essential medium) supplemented with 0.1% inactivated FBS and then cultured in a CO2 incubator. After being cultured for 3 days, the cells were again washed with D-PBS, placed in MEM (Eagle's minimum essential medium) supplemented with 0.1% inactivated FBS and treated with or without a test compound in the presence of […] recombinant human TGF-β1 (transforming growth factor-β1) in a CO2 incubator for 16 hours. After the incubation, the cells were washed with D-PBS and the medium was replaced with MEM containing 0.25 mM ascorbate. A radio-labeled compound, ^3H-proline, was then added to the culture medium to radio-label the collagen proteins produced. After being cultured for 24 hours, the supernatant was collected and the collagen proteins were extracted from the supernatant as acid-soluble fractions. The amount of collagen produced was determined by measuring the radioactivity contained in the fractions. A concentration of test compound that produced 50% inhibition [IC50 value (nM)] on collagen synthesis was calculated by comparing the radioactivity count in a supernatant of test-compound-treated cells with that of untreated cells (control).
As a reminder, the IC50 is the concentration needed to halve the response being measured. For `Cc1ccc(S(=O)(=O)N(C)c2ccc(Oc3ccc4cc(C(=O)N5CCN(Cc6ccc(OCC(F)(F)F)cc6)CC5)[nH]c4c3)nc2)cc1` [Example 41, 4,N-Dimethyl-N-[6-(2-{4-[4-(2,2,2-trifluoroethoxy)benzyl]-piperazine-1-carbonyl}-1H-indol-6-yloxy)pyridin-3-yl]benzene-sulfonamide], the IC50 is below 0.01 µM.
In the case of `CC(C)Oc1ccc(CN2CCN(C(=O)c3cc4ccc(Oc5ncc(N(C)S(=O)(=O)c6ccc(Cl)c(Cl)c6)cn5)cc4n3C)CC2)cc1` [Example 43, 3,4-Dichloro-N-(2-{2-[4-(4-isopropoxybenzyl)piperazine-1-carbonyl]-1-methyl-1H-indol-6-yloxy}pyrimidin-5-yl)-N-methyl-benzenesulfonamide], the IC50 is below 0.01 µM.
As to `COc1ccc(CN(C)C2CCN(C(=O)c3cc4cc(Oc5ccc(NC(=O)c6ccc(C(F)(F)F)cc6)cn5)ccc4n3C)CC2)cc1` [Example 232, N-[6-(2-{4-[(4-Methoxybenzyl)methylamino]piperidine-1-carbonyl}-1-methyl-1H-indol-5-yloxy)pyridin-3-yl]-4-trifluoromethyl-benzamide oxalate], the IC50 is below 0.01 µM.
Take `Br.CN(C(=O)c1ccc(OC(F)(F)F)cc1)c1ccc(Oc2ccc3cc(C(=O)N4CCN(Cc5ccc(OC(CF)CF)cc5)CC4)n(C)c3c2)nc1` [Example 279, N-[6-(2-{4-[4-(2-Fluoro-1-fluoromethylethoxy)benzyl]piperazine-1-carbonyl}-1-methyl-1H-indol-6-yloxy)pyridin-3-yl]-N-methyl-4-tri-fluoromethoxybenzamide hydrobromide]: the IC50 is below 0.01 µM.
Same read-out and setting: for `CC(C)CN1CCN(C(=O)c2cc3cc(Oc4ccc(NC(=O)c5ccc(C(F)(F)F)cc5)cn4)ccc3n2C)CC1` [Example 547, N-{6-[2-(4-isobutylpiperazine-1-carbonyl)-1-methyl-1H-indol-5-yloxy]pyridin-3-yl}-4-trifluoromethylbenzamide] the value was below 0.01 µM.

Tested on in another series: not given
Test: not given
Conditions: not given
The term melting point denotes the temperature, or range, at which the solid turns liquid. Regarding `Cc1ccc(S(=O)(=O)N(C)c2ccc(Oc3ccc4cc(C(=O)N5CCN(Cc6ccc(OCC(F)(F)F)cc6)CC5)[nH]c4c3)nc2)cc1` [Example 41, 4,N-Dimethyl-N-[6-(2-{4-[4-(2,2,2-trifluoroethoxy)benzyl]-piperazine-1-carbonyl}-1H-indol-6-yloxy)pyridin-3-yl]benzene-sulfonamide], the melting point is 184 to 184.2 °C.
Take `CC(C)Oc1ccc(CN2CCN(C(=O)c3cc4ccc(Oc5ncc(N(C)S(=O)(=O)c6ccc(Cl)c(Cl)c6)cn5)cc4n3C)CC2)cc1` [Example 43, 3,4-Dichloro-N-(2-{2-[4-(4-isopropoxybenzyl)piperazine-1-carbonyl]-1-methyl-1H-indol-6-yloxy}pyrimidin-5-yl)-N-methyl-benzenesulfonamide]: the melting point lay in the range of 191.2 to 193 °C.
`Br.CN(C(=O)c1ccc(OC(F)(F)F)cc1)c1ccc(Oc2ccc3cc(C(=O)N4CCN(Cc5ccc(OC(CF)CF)cc5)CC4)n(C)c3c2)nc1` [Example 279, N-[6-(2-{4-[4-(2-Fluoro-1-fluoromethylethoxy)benzyl]piperazine-1-carbonyl}-1-methyl-1H-indol-6-yloxy)pyridin-3-yl]-N-methyl-4-tri-fluoromethoxybenzamide hydrobromide] had a melting point of 227.5 to 230.3 °C.
`CS(=O)(=O)O.CS(=O)(=O)O.Cn1c(C(=O)N2CCN(Cc3ccccn3)CC2)cc2cc(Oc3ccc(NC(=O)c4ccc(C(F)(F)F)cc4)cn3)ccc21` [Example 560, N-{6-[1-Methyl-2-(4-pyridin-2-ylmethylpiperazine-1-carbonyl)-1H-indol-5-yloxy]pyridin-3-yl}-4-trifluoromethylbenzamide bismethanesulfonate] gave a melting point of 137 to 139 °C.
The same measure, in the same setting: for `CN(C(=O)c1ccc(C(F)(F)F)cc1)c1ccc(Oc2ccc3c(c2)cc(C(=O)N2CCN(Cc4ccccn4)CC2)n3C)nc1.O=C(O)C(=O)O.O=C(O)C(=O)O` [Example 561, N-Methyl-N-{6-[1-methyl-2-(4-pyridin-2-ylmethylpiperazine-1-carbonyl)-1H-indol-5-yloxy]pyridin-3-yl}-4-trifluoromethyl-benzamide dioxalate] the value was 114 to 117 °C; for `CC(C)CN1CCN(C(=O)c2cc3cc(Oc4ccc(N(C)C(=O)c5ccc(C(F)(F)F)cc5)cn4)ccc3n2C)CC1` [Example 562, N-{6-[2-(4-Isobutylpiperazine-1-carbonyl)-1-methyl-1H-indol-5-yl-oxy]pyridin-3-yl}-N-methyl-4-trifluoromethylbenzamide], 163 to 164 °C.
With `Br.Br.Cn1c(C(=O)N2CCN(Cc3cccnc3)CC2)cc2cc(Oc3ccc(NC(=O)c4ccc(Cl)c(Cl)c4)cn3)ccc21` [Example 563, 3,4-Dichloro-N-{6-[1-methyl-2-(4-pyridin-3-ylmethylpiperazine-1-carbonyl)-1H-indol-5-yloxy]pyridin-3-yl}benzamide dihydrobromide], the melting point is 249 to 252 °C (dec.).
In the case of `Br.Br.Cn1c(C(=O)N2CCN(Cc3ccccn3)CC2)cc2cc(Oc3ccc(NC(=O)c4ccc(Cl)c(Cl)c4)cn3)ccc21` [Example 564, 3,4-Dichloro-N-{6-[1-methyl-2-(4-pyridin-2-ylmethylpiperazine-1-carbonyl)-1H-indol-5-yloxy]pyridin-3-yl}benzamide dihydrobromide], the melting point is 231 to 233 °C (dec.).
For `Br.Br.Cc1nc(Oc2ccc3c(c2)cc(C(=O)N2CCN(Cc4ccncc4)CC2)n3C)ccc1NC(=O)c1ccc(C(F)(F)F)cc1` [Example 565, N-{2-Methyl-6-[1-methyl-2-(4-pyridin-4-ylmethylpiperazine-1-carbonyl)-1H-indol-5-yloxy]pyridin-3-yl}-4-trifluoromethyl-benzamide dihydrobromide], the melting point was 223 to 225 °C (dec.).
In turn, `Cc1nc(Oc2ccc3c(c2)cc(C(=O)N2CCN(Cc4ccncc4)CC2)n3C)ccc1N(C)C(=O)c1ccc(C(F)(F)F)cc1.O=C(O)C(=O)O.O=C(O)C(=O)O` [Example 566, N-Methyl-N-{2-methyl-6-[1-methyl-2-(4-pyridin-4-ylmethyl-piperazine-1-carbonyl)-1H-indol-5-yloxy]pyridin-3-yl}-4-tri-fluoromethylbenzamide dioxalate] gave a melting point of 117 to 120 °C.
`Br.CC(C)CN1CCN(C(=O)c2cc3cc(Oc4ccc(NC(=O)c5ccc(Cl)c(Cl)c5)cn4)ccc3n2C)CC1` [Example 567, 3,4-Dichloro-N-{6-[2-(4-isobutylpiperazine-1-carbonyl)-1-methyl-1H-indol-5-yloxy]pyridin-3-yl}benzamide hydrobromide] returned a melting point of 251 to 254 °C.
On the same count and under the same terms, under `Cc1cc(CN2CCN(C(=O)c3cc4cc(Oc5ccc(N(C)C(=O)c6ccc(C(F)(F)F)cc6)cn5)ccc4n3C)CC2)no1.O=C(O)/C=C\C(=O)O` [Example 568, N-Methyl-N-(6-{1-methyl-2-[4-(5-methylisoxazol-3-ylmethyl)-piperazine-1-carbonyl]-1H-indol-5-yloxy}pyridin-3-yl)-4-tri-fluoromethylbenzamide maleate] stands 112 to 115 °C.
On to `Br.Cc1cc(CN2CCN(C(=O)c3cc4cc(Oc5ccc(NC(=O)c6ccc(C(F)(F)F)cc6)cn5)ccc4n3C)CC2)no1` [Example 569, N-(6-{1-Methyl-2-[4-(5-methylisoxazol-3-ylmethyl)piperazine-1-carbonyl]-1H-indol-5-yloxy}pyridin-3-yl)-4-trifluoromethyl-benzamide hydrobromide], for which the melting point lay within 220 to 223 °C.
In turn, `Br.Br.CN(C(=O)c1ccc(C(F)(F)F)cc1)c1ccc(Oc2ccc3c(c2)cc(C(=O)N2CCN(Cc4ccc(C#N)cn4)CC2)n3C)nc1` [Example 570, N-(6-{2-[4-(5-Cyanopyridin-2-ylmethyl)piperazine-1-carbonyl]-1-methyl-1H-indol-5-yloxy}pyridin-3-yl)-N-methyl-4-trifluoromethyl-benzamide dihydrobromide] returned a melting point of 211 to 215 °C.
For `Br.CCN(C(=O)Nc1ccc(C(F)(F)F)cc1)c1ccc(Oc2ccc3c(c2)cc(C(=O)N2CCN(Cc4ccccc4)CC2)n3C)nc1` [Example 580, 1-{6-[2-(4-Benzylpiperazine-1-carbonyl)-1-methyl-1H-indol-5-yl-oxy]pyridin-3-yl}-1-ethyl-3-(4-trifluoromethylphenyl)urea hydrobromide], the melting point was 224 to 230 °C.
Same read-out and setting: under `Br.CCN(C(=S)Nc1ccc(Cl)c(Cl)c1)c1ccc(Oc2ccc3c(c2)cc(C(=O)N2CCN(Cc4ccccc4)CC2)n3C)nc1` [Example 581, 1-{6-[2-(4-Benzylpiperazine-1-carbonyl)-1-methyl-1H-indol-5-yl-oxy]pyridin-3-yl}-3-(3,4-dichlorophenyl)-1-ethylthiourea hydrobromide] stands 163 to 168 °C.
Regarding `Br.CCN(C(=O)Nc1ccc(Cl)c(Cl)c1)c1ccc(Oc2ccc3c(c2)cc(C(=O)N2CCN(Cc4ccc5c(c4)OCO5)CC2)n3C)nc1` [Example 583, 1-{6-[2-(4-Benzo[1,3]dioxol-5-ylmethylpiperazine-1-carbonyl)-1-methyl-1H-indol-5-yloxy]pyridin-3-yl}-3-(3,4-dichlorophenyl)-1-ethylurea hydrobromide], the melting point lay in the range of 224 to 228 °C.
Still for that read-out and setting: under `COc1ccc(CN2CCN(C(=O)c3cc4cc(Oc5ccc(N(C)C(=O)c6ccc(C(F)(F)F)cc6O)cn5)ccc4n3C)CC2)cc1.O=C(O)C(=O)O` [Example 592, 2-Hydroxy-N-(6-{2-[4-(4-methoxybenzyl)piperazine-1-carbonyl]-1-methyl-1H-indol-5-yloxy}pyridin-3-yl)-N-methyl-4-trifluoromethyl-benzamide oxalate] stands 171 to 173 °C; under `CN(C(=O)c1ccc(C(F)(F)F)cc1O)c1ccc(Oc2ccc3c(c2)cc(C(=O)N2CCN(Cc4ccc(OC(F)F)cc4)CC2)n3C)nc1.O=C(O)C(=O)O` [Example 594, N-(6-{2-[4-(4-Difluoromethoxybenzyl)piperazine-1-carbonyl]-1-methyl-1H-indol-5-yloxy}pyridin-3-yl)-2-hydroxy-N-methyl-4-tri-fluoromethylbenzamide oxalate], 155 to 160 °C.

The record behind these values is US8551999B2, “Heterocyclic compound and pharmaceutical composition thereof” (Otsuka Pharmaceutical Co., Ltd., priority 2007, dated 2013).
